Experimental data from US12071425B2 (Genentech, Inc., priority 2018, dated 2024).

Target: kinase domain of IRE1 alpha (His-tagged kinase dead construct KR, AA G547-L977, D688N) (Homo sapiens (Human), UniProt O75460, D688N)
Test: IRE1α TR-FRET competition binding assay
Settings: competition with Kinase Tracer 236, 0.1 μM; one hour at room temperature
How it was run: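 Sf9-expressed kinase-dead KR construct (0.006 μM final) pre-incubated 1 h at 4° C with Eu anti-His antibody (0.002 μM) in HEPES pH 7.5/MgCl2/Brij/DTT buffer; Kinase Tracer 236 (ATP-competitive probe, 0.1 μM final) added with compound. 1 h at room temperature; tracer displacement read by TR-FRET (665/615 nm).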

kinase domain of IRE1 alpha (His-tagged kinase dead construct KR, AA G547-L977, D688N), sequence (O75460 547-977 D688N): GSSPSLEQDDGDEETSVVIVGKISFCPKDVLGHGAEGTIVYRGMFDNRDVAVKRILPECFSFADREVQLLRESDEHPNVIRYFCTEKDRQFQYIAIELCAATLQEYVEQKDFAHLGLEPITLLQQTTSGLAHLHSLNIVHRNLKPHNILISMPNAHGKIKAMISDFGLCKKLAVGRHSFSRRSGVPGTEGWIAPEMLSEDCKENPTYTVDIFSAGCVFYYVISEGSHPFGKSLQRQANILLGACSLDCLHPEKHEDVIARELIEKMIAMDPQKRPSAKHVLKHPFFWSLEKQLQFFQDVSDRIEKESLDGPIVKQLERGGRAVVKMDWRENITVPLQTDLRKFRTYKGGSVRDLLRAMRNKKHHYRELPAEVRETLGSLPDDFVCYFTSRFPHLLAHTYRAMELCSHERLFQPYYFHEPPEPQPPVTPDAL

Row | SMILES | IC50 [nM]
1 | O=S(=O)(Nc1ccc(Oc2ncccc2-c2ccnc(N[C@H]3CCCNC3)n2)c(F)c1F)c1cccc(OC(F)(F)F)c1 [Compound 207, (S)-N-(2,3-difluoro-4-((3-(2-(piperidin-3-ylamino)pyrimidin-4-yl)pyridin-2-yl)oxy)phenyl)-3-(trifluoromethoxy)benzenesulfonamide] | 7.4
2 | O=S(=O)(Nc1ccc(Oc2ncccc2-c2ccnc(N[C@H]3CCCNC3)n2)c(F)c1F)c1cccc(OC(F)F)c1 [Compound 208, (S)-N-(2,3-difluoro-4-((3-(2-(piperidin-3-ylamino)pyrimidin-4-yl)pyridin-2-yl)oxy)phenyl)-3-(difluoromethoxy)benzenesulfonamide] | 11
3 | O=S(=O)(CC1CC2(CCC2)C1)Nc1ccc(Oc2ncccc2-c2ccnc(N[C@H]3CCCNC3)n2)c(F)c1F [Compound 209, (S)-N-(2,3-difluoro-4-((3-(2-(piperidin-3-ylamino)pyrimidin-4-yl)pyridin-2-yl)oxy)phenyl)-1-(spiro[3.3]heptan-2-yl)methanesulfonamide] | 7.5
4 | CC(C)(C#N)CCS(=O)(=O)Nc1ccc(Oc2ncccc2-c2ccnc(N[C@H]3CCCNC3)n2)c(F)c1F [Compound 210, (S)-3-cyano-N-(2,3-difluoro-4-((3-(2-(piperidin-3-ylamino)pyrimidin-4-yl)pyridin-2-yl)oxy)phenyl)-3-methylbutane-1-sulfonamide] | 23
5 | COc1ccc(S(=O)(=O)Nc2ccc(Oc3ncccc3-c3ccnc(N[C@H]4CCCNC4)n3)c(F)c2F)cc1 [Compound 211, (S)-N-(2,3-difluoro-4-((3-(2-(piperidin-3-ylamino)pyrimidin-4-yl)pyridin-2-yl)oxy)phenyl)-4-methoxybenzenesulfonamide] | 33
6 | COc1cccc(S(=O)(=O)Nc2ccc(Oc3ncccc3-c3ccnc(N[C@H]4CCCNC4)n3)c(F)c2F)c1 [Compound 212, (S)-N-(2,3-difluoro-4-((3-(2-(piperidin-3-ylamino)pyrimidin-4-yl)pyridin-2-yl)oxy)phenyl)-3-methoxybenzenesulfonamide] | 25
7 | O=S(=O)(Cc1ccc(Cl)cc1)Nc1ccc(Oc2ncccc2-c2ccnc(N[C@H]3CCCNC3)n2)c(F)c1F [Compound 213, (S)-1-(4-chlorophenyl)-N-(2,3-difluoro-4-((3-(2-(piperidin-3-ylamino)pyrimidin-4-yl)pyridin-2-yl)oxy)phenyl)methanesulfonamide] | 5.9
8 | O=S(=O)(Nc1ccc(Oc2ncccc2-c2ccnc(N[C@H]3CCCNC3)n2)c(F)c1F)c1cccnc1 [Compound 214, (S)-N-(2,3-difluoro-4-((3-(2-(piperidin-3-ylamino)pyrimidin-4-yl)pyridin-2-yl)oxy)phenyl)pyridine-3-sulfonamide] | 44
9 | O=S(=O)(CCC1CCCCC1)Nc1ccc(Oc2ncccc2-c2ccnc(N[C@H]3CCCNC3)n2)c(F)c1F [Compound 215, (S)-2-cyclohexyl-N-(2,3-difluoro-4-((3-(2-(piperidin-3-ylamino)pyrimidin-4-yl)pyridin-2-yl)oxy)phenyl)ethane-1-sulfonamide] | 11
10 | CC(C)(CC#N)CS(=O)(=O)Nc1ccc(Oc2ncccc2-c2ccnc(N[C@H]3CCCNC3)n2)c(F)c1F [Compound 216, (S)-3-cyano-N-(2,3-difluoro-4-((3-(2-(piperidin-3-ylamino)pyrimidin-4-yl)pyridin-2-yl)oxy)phenyl)-2,2-dimethylpropane-1-sulfonamide] | 13
11 | O=S(=O)(CCC1CC1(F)F)Nc1ccc(Oc2ncccc2-c2ccnc(N[C@H]3CCCNC3)n2)c(F)c1F (stereo partly drawn) [Compound 217, N-(2,3-difluoro-4-((3-(2-(((S)-piperidin-3-yl)amino)pyrimidin-4-yl)pyridin-2-yl)oxy)phenyl)-2-(2,2-difluorocyclopropyl)ethane-1-sulfonamide] | 16
12 | O=S(=O)(Nc1ccc(Oc2ncccc2-c2ccnc(N[C@H]3CCCNC3)n2)c(F)c1F)c1ccccc1 [Compound 218, (S)-N-(2,3-difluoro-4-((3-(2-(piperidin-3-ylamino)pyrimidin-4-yl)pyridin-2-yl)oxy)phenyl)benzenesulfonamide] | 16
13 | N#Cc1ccc(S(=O)(=O)Nc2ccc(Oc3ncccc3-c3ccnc(N[C@H]4CCCNC4)n3)c(F)c2F)cc1 [Compound 219, (S)-4-cyano-N-(2,3-difluoro-4-((3-(2-(piperidin-3-ylamino)pyrimidin-4-yl)pyridin-2-yl)oxy)phenyl)benzenesulfonamide] | 53
14 | N#Cc1cccc(S(=O)(=O)Nc2ccc(Oc3ncccc3-c3ccnc(N[C@H]4CCCNC4)n3)c(F)c2F)c1 [Compound 220, (S)-3-cyano-N-(2,3-difluoro-4-((3-(2-(piperidin-3-ylamino)pyrimidin-4-yl)pyridin-2-yl)oxy)phenyl)benzenesulfonamide] | 19
15 | Cn1cnc(S(=O)(=O)Nc2ccc(Oc3ncccc3-c3ccnc(N[C@H]4CCCNC4)n3)c(F)c2F)c1 [Compound 221, (S)-N-(2,3-difluoro-4-((3-(2-(piperidin-3-ylamino)pyrimidin-4-yl)pyridin-2-yl)oxy)phenyl)-1-methyl-1H-imidazole-4-sulfonamide] | 380
16 | Cn1cc(S(=O)(=O)Nc2ccc(Oc3ncccc3-c3ccnc(N[C@H]4CCCNC4)n3)c(F)c2F)cn1 [Compound 222, (S)-N-(2,3-difluoro-4-((3-(2-(piperidin-3-ylamino)pyrimidin-4-yl)pyridin-2-yl)oxy)phenyl)-1-methyl-1H-pyrazole-4-sulfonamide] | 240
17 | O=S(=O)(Nc1ccc(Oc2ncccc2-c2ccnc(N[C@H]3CCCNC3)n2)c(F)c1F)c1ccc(OC(F)(F)F)cc1 [Compound 223, (S)-N-(2,3-difluoro-4-((3-(2-(piperidin-3-ylamino)pyrimidin-4-yl)pyridin-2-yl)oxy)phenyl)-4-(trifluoromethoxy)benzenesulfonamide] | 26
18 | COc1ccccc1S(=O)(=O)Nc1ccc(Oc2ncccc2-c2ccnc(N[C@H]3CCCNC3)n2)c(F)c1F [Compound 224, (S)-N-(2,3-difluoro-4-((3-(2-(piperidin-3-ylamino)pyrimidin-4-yl)pyridin-2-yl)oxy)phenyl)-2-methoxybenzenesulfonamide] | 40
19 | O=S(=O)(Cc1cccc(Cl)c1)Nc1ccc(Oc2ncccc2-c2ccnc(N[C@H]3CCCNC3)n2)c(F)c1F [Compound 225, (S)-1-(3-chlorophenyl)-N-(2,3-difluoro-4-((3-(2-(piperidin-3-ylamino)pyrimidin-4-yl)pyridin-2-yl)oxy)phenyl)methanesulfonamide] | 6.1
20 | CC(C)(C)CCS(=O)(=O)Nc1ccc(Oc2ncccc2-c2ccnc(N[C@H]3CCCNC3)n2)c(F)c1F [Compound 226, (S)-N-(2,3-difluoro-4-((3-(2-(piperidin-3-ylamino)pyrimidin-4-yl)pyridin-2-yl)oxy)phenyl)-3,3-dimethylbutane-1-sulfonamide] | 18
21 | O=S(=O)(CC1CCCC1)Nc1ccc(Oc2ncccc2-c2ccnc(N[C@H]3CCCNC3)n2)c(F)c1F [Compound 228, (S)-1-cyclopentyl-N-(2,3-difluoro-4-((3-(2-(piperidin-3-ylamino)pyrimidin-4-yl)pyridin-2-yl)oxy)phenyl)methanesulfonamide] | 9.2
22 | N#Cc1cccc(CS(=O)(=O)Nc2ccc(Oc3ncccc3-c3ccnc(N[C@H]4CCCNC4)n3)c(F)c2F)c1 [Compound 229, (S)-1-(3-cyanophenyl)-N-(2,3-difluoro-4-((3-(2-(piperidin-3-ylamino)pyrimidin-4-yl)pyridin-2-yl)oxy)phenyl)methanesulfonamide] | 6.4
23 | CC(C)(C)CCCS(=O)(=O)Nc1ccc(Oc2ncccc2-c2ccnc(N[C@H]3CCCNC3)n2)c(F)c1F [Compound 230, (S)-N-(2,3-difluoro-4-((3-(2-(piperidin-3-ylamino)pyrimidin-4-yl)pyridin-2-yl)oxy)phenyl)-4,4-dimethylpentane-1-sulfonamide] | 14
24 | O=S(=O)(Cc1cccc(F)c1)Nc1ccc(Oc2ncccc2-c2ccnc(N[C@H]3CCCNC3)n2)c(F)c1F [Compound 231, (S)-N-(2,3-difluoro-4-((3-(2-(piperidin-3-ylamino)pyrimidin-4-yl)pyridin-2-yl)oxy)phenyl)-1-(3-fluorophenyl)methanesulfonamide] | 7.2
25 | O=S(=O)(CC1CC(F)(F)C1)Nc1ccc(Oc2ncccc2-c2ccnc(N[C@H]3CCCNC3)n2)c(F)c1F [Compound 232, (S)-N-(2,3-difluoro-4-(3-(2-(piperidin-3-ylamino)pyrimidin-4-yl)pyridin-2-yloxy)phenyl)-1-(3,3-difluorocyclobutyl)methanesulfonamide] | 15
26 | O=S(=O)(Cc1cccnc1)Nc1ccc(Oc2ncccc2-c2ccnc(N[C@H]3CCCNC3)n2)c(F)c1F [Compound 233, (S)-N-(2,3-difluoro-4-(3-(2-(piperidin-3-ylamino)pyrimidin-4-yl)pyridin-2-yloxy)phenyl)-1-(pyridin-3-yl)methanesulfonamide] | 9
27 | O=S(=O)(Cc1ccncc1)Nc1ccc(Oc2ncccc2-c2ccnc(N[C@H]3CCCNC3)n2)c(F)c1F [Compound 234, (S)-N-(2,3-difluoro-4-(3-(2-(piperidin-3-ylamino)pyrimidin-4-yl)pyridin-2-yloxy)phenyl)-1-(pyridin-4-yl)methanesulfonamide] | 7
28 | O=S(=O)(Cc1ccc(F)cc1)Nc1ccc(Oc2ncccc2-c2ccnc(N[C@H]3CCCNC3)n2)c(F)c1F [Compound 235, (S)-N-(2,3-difluoro-4-(3-(2-(piperidin-3-ylamino)pyrimidin-4-yl)pyridin-2-yloxy)phenyl)-1-(4-fluorophenyl)methanesulfonamide] | 4
29 | Cn1ccc(CS(=O)(=O)Nc2c(F)cc(Oc3ncccc3-c3ccnc(N[C@H]4CCCNC4)n3)c(F)c2F)n1 [Compound 236, (S)-1-(1-methyl-1H-pyrazol-3-yl)-N-(2,3,6-trifluoro-4-(3-(2-(piperidin-3-ylamino)pyrimidin-4-yl)pyridin-2-yloxy)phenyl)methanesulfonamide] | 9
